In patent publication US20260224549A1, “COMPOUNDS, COMPOSITIONS, AND METHODS FOR TREATING, AMELIORATING, AND/OR PREVENTING PAIN” (priority 2023, published 2026):
Several values for one entry are separate records, joined by “and”; a condition that tells them apart may be missing. Equal entries are not always repeated.

Tests used:
[1] = in vivo; settings: dog, in vivo
Source text: (§1) The chosen dose can be higher, as long as within the pharmacological range.

[2] = tested on: dog; assay: in vivo
Source text: as §1

[3] = biological target: μ-opioid receptor (Rattus norvegicus, UniProt P33535)
μ-opioid receptor, sequence (P33535 whole entry): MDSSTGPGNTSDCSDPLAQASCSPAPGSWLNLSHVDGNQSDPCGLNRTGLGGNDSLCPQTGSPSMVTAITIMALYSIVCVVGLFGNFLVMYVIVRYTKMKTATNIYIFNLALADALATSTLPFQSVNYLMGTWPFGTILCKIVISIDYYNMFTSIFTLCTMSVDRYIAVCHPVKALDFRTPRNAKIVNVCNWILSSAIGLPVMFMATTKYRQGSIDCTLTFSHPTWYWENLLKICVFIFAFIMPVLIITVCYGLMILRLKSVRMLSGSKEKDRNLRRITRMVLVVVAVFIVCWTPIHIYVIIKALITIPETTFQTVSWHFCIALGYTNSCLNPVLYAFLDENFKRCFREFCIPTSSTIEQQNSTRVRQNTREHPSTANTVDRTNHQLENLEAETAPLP

[4] = clinical; settings: for CL/F (apparent clearance), Mean / Tlast (time of last measurable concentration), Median / Tlast, Max / Tlast, Min / Tmax, Min / Tmax, Max / AUC(0-t): single oral dose, N = 6; for CL/F (apparent clearance), Mean / Tlast (time of last measurable concentration), Median / Tlast, Max / Tlast, Min / Tmax, Min / Tmax, Max / Tmax / half-life / Vd/F / AUC(0-inf) / Cmax / AUC(0-t): plasma; for Tmax / half-life / Vd/F / AUC(0-inf) / Cmax / AUC(0-t): human; for AUC(0-t): Mean
Source text: The study comprised a single ascending dose (SAD), sequential cohort study, incorporating a food effect (FE) evaluation. Up to 40 subjects were to be studied in 5 cohorts (Cohorts A1 to A5), each cohort consisting of 8 subjects.
Subjects in Cohort A3 participated in 2 treatment periods (once in Fed state, once in Fasted state) separated by a minimum of 6 days. All subjects were to return for a poststudy on Day 5 (+2 days) after their final dose for a final safety assessment.
All doses for Cohorts A1, A2, A4, and A5 were administered in the fasted state in the moming of Day 1.
The actual blood sampling dates and times relative to dosing time were listed by subject and nominal sampling time, with time deviation calculated, for all subjects with available plasma concentration data.
For PK concentration data, the number of non-missing values, number of below limit of quantification (BLQ) values, arithmetic mean, standard deviation, median, minimum, maximum, coefficient of variation (CV %), geometric mean and geometric coefficient of variation (geo CV %) values was presented.
For PK parameter data, the number of non-missing values, arithmetic mean, standard deviation, median, minimum, and maximum values were presented.

[5] = Hygroscopicity - Dynamic Vapor Sorption (DVS); type: physicochemical
Description: Hygroscopicity—Dynamic Vapor Sorption (DVS)
DVS is a gravimetric technique that measures how quickly and how much of a solvent (water) is sorbed by a sample. The relative humidity or vapor concentration surrounding the sample is varied while the change in mass of the sample is measured. […] The mass values at each relative humidity step are used to generate an isotherm. Isotherms are divided in two components: sorption for increasing humidity steps and desorption for decreasing humidity steps. A plot of kinetic data is also used to show the change in mass and humidity as a function of time.
The samples were analyzed using a TA Q5000 automated dynamic vapor sorption analyzer. The samples were dried at 60° C. over 180 minutes and then cooled to 25° C. with a dry nitrogen purge. The samples were then subjected to 0 to 90% RH, back to 10% RH at 25° C. in 10% RH steps.

Q: Which NOAEL [1] does the source give for `CN(C)C[C@H]1CN(CCc2ccsc2)CC[C@]1(O)c1cccc(C(N)=O)c1` [Compound I, 3-(3S, 4R)-3-((dimethylamino)methyl)-4-hydroxy-1-(2-(thiophen-3-yl)ethyl)piperidin-4-yl-benzamide] here?
A: 60 mg/kg/day and 33.3 mg/kg

Q: What about the “NOAEL HED for 50 kg subject” value [2] of the same molecule?
A: 1665 mg

Q: What about the “mediation of antinociceptive effect” value ([3]; in vivo) of the same molecule?
A: mediated exclusively by μ-opioid receptor

Q: What about the “pain relief in preclinical models” value ([3]; preclinical models) of the same molecule?
A: comparable to Schedule 2 opiates

Q: What about the “CL/F (apparent clearance), Mean” value ([4]; 20 mg DS (Fasted)) of the same molecule?
A: 1130 L/h

Q: What about the “Tlast (time of last measurable concentration), Median” value (from here on “Tlast … Median”) ([4]; 20 mg DS (Fasted)) of the same molecule?
A: 4.00 h

Q: What about the “Tlast, Max” value ([4]; 20 mg DS (Fasted)) of the same molecule?
A: 4.03 h

Q: What about the “Tlast, Min” value ([4]; 20 mg DS (Fasted)) of the same molecule?
A: 3.50 h

Q: What about the “Tmax, Min” value ([4]; 20 mg DS (Fasted)) of the same molecule?
A: 0.500 h

Q: What about the CL/F ([4]; 20 mg fasted) of the same molecule?
A: 1130 L/h

Q: What about the “mean concentrations measurable through” value ([4]; 20 mg fasted) of the same molecule?
A: 3.5 h

Q: And the “CL/F (apparent clearance), Mean” value ([4]; 60 mg DS (Fasted))?
A: 937 L/h

Q: And the “Tlast … Median” value ([4]; 60 mg DS (Fasted))?
A: 12.0 h

Q: What about the “Tlast, Max” value ([4]; 60 mg DS (Fasted)) of the same molecule?
A: 24.0 h

Q: What about the “Tlast, Min” value ([4]; 60 mg DS (Fasted)) of the same molecule?
A: 6.00 h

Q: What about the “Tmax, Max” value ([4]; 60 mg DS (Fasted)) of the same molecule?
A: 3.02 h

Q: What about the CL/F ([4]; 60 mg fasted) of the same molecule?
A: 937 L/h

Q: And the “mean concentrations measurable through” value ([4]; 60 mg fasted)?
A: 8 h

Q: What about the “CL/F (apparent clearance), Mean” value ([4]; 120 mg DS (Fasted)) of the same molecule?
A: 541 L/h

Q: And the “Tlast … Median” value ([4]; 120 mg DS (Fasted))?
A: 36.0 h

Q: What about the “Tlast, Max” value ([4]; 120 mg DS (Fasted)) of the same molecule?
A: 48.0 h

Q: And the “Tlast, Min” value ([4]; 120 mg DS (Fasted))?
A: 16.0 h

Q: What about the “Tmax, Max” value ([4]; 120 mg DS (Fasted)) of the same molecule?
A: 3.00 h

Q: What about the “mean concentrations measurable through” value ([4]; 120 mg fasted) of the same molecule?
A: 36 h

Q: And the “CL/F (apparent clearance), Mean” value ([4]; 200 mg DS (Fasted))?
A: 452 L/h

Q: What about the “Tlast … Median” value ([4]; 200 mg DS (Fasted)) of the same molecule?
A: 48.0 h

Q: And the “Tlast, Max” value ([4]; 200 mg DS (Fasted))?
A: 48.1 h

Q: What about the “Tlast, Min” value ([4]; 200 mg DS (Fasted)) of the same molecule?
A: 36.0 h

Q: And the “Tmax, Max” value ([4]; 200 mg DS (Fasted))?
A: 2.02 h

Q: What about the “Tmax, Min” value ([4]; 200 mg DS (Fasted)) of the same molecule?
A: 1.00 h

Q: And the “mean concentrations measurable through” value ([4]; 200 mg fasted)?
A: 36 h

Q: And the “CL/F (apparent clearance), Mean” value ([4]; 400 mg DS (Fasted))?
A: 500 L/h

Q: And the “Tlast … Median” value ([4]; 400 mg DS (Fasted))?
A: 48.0 h

Q: What about the “Tlast, Max” value ([4]; 400 mg DS (Fasted)) of the same molecule?
A: 48.0 h

Q: What about the “Tlast, Min” value ([4]; 400 mg DS (Fasted)) of the same molecule?
A: 48.0 h

Q: And the “Tmax, Max” value ([4]; 400 mg DS (Fasted))?
A: 2.02 h

Q: What about the “Tmax, Min” value ([4]; 400 mg DS (Fasted)) of the same molecule?
A: 1.00 h

Q: What about the “mean concentrations measurable through” value ([4]; 400 mg fasted) of the same molecule?
A: 48 h

Q: And the Tmax ([4]; oral)?
A: 1.5 to 2.5 h

Q: And the half-life ([4]; oral)?
A: 29.4 to 31.4 h

Q: What about the Vd/F ([4]; oral, 20 mg) of the same molecule?
A: 1380 L

Q: What about the half-life ([4]; oral, 20 mg) of the same molecule?
A: 1.05 h

Q: And the Vd/F ([4]; oral, 60 mg)?
A: 6790 L

Q: And the half-life ([4]; oral, 60 mg)?
A: 7.89 h

Q: And the Vd/F ([4]; oral, 120 mg)?
A: 12300 L

Q: And the Vd/F ([4]; oral, 200 mg)?
A: 18100 L

Q: What about the Vd/F ([4]; oral, 400 mg) of the same molecule?
A: 20400 L

Q: And the AUC(0-inf) ([4]; po, 20 mg)?
A: 18.4 ng·h/mL

Q: What about the Cmax ([4]; po, 20 mg) of the same molecule?
A: 9.69 ng/mL

Q: What about the Tmax ([4]; po, 20 mg) of the same molecule?
A: 2.5 h

Q: What about the Vd/F ([4]; po, 20 mg) of the same molecule?
A: 1380 L

Q: And the half-life ([4]; po, 20 mg)?
A: 1.05 h

Q: And the AUC(0-t) ([4]; po, 20 mg, AUC0-last (zero to 24 hours postdose), 20 mg DS (Fasted))?
A: 16.5 ng·h/mL

Q: And the AUC(0-t) ([4]; po, 20 mg, AUC0-t (zero to the last quantifiable concentration), 20 mg DS (Fasted))?
A: 13.9 ng·h/mL

Q: What about the AUC(0-inf) ([4]; po, 60 mg) of the same molecule?
A: 79.8 ng·h/mL

Q: And the Cmax ([4]; po, 60 mg)?
A: 51.7 ng/mL

Q: What about the Tmax ([4]; po, 60 mg) of the same molecule?
A: 2.25 h

Q: What about the Vd/F ([4]; po, 60 mg) of the same molecule?
A: 6790 L

Q: What about the half-life ([4]; po, 60 mg) of the same molecule?
A: 7.89 h

Q: And the AUC(0-t) ([4]; po, 60 mg, AUC0-last (zero to 24 hours postdose), 60 mg DS (Fasted))?
A: 71.6 ng·h/mL

Q: What about the AUC(0-t) ([4]; po, 60 mg, AUC0-t (zero to the last quantifiable concentration), 60 mg DS (Fasted)) of the same molecule?
A: 67.1 ng·h/mL

Q: What about the AUC(0-inf) ([4]; po, 120 mg) of the same molecule?
A: 245 ng·h/mL

Q: And the Cmax ([4]; po, 120 mg)?
A: 98.5 ng/mL

Q: And the Tmax ([4]; po, 120 mg)?
A: 2.28 h

Q: What about the Vd/F ([4]; po, 120 mg) of the same molecule?
A: 12300 L

Q: And the half-life ([4]; po, 120 mg)?
A: 31.4 h

Q: What about the AUC(0-t) ([4]; po, 120 mg, AUC0-last (zero to 24 hours postdose), 120 mg DS (Fasted)) of the same molecule?
A: 211 ng·h/mL

Q: What about the AUC(0-t) ([4]; po, 120 mg, AUC0-t (zero to the last quantifiable concentration), 120 mg DS (Fasted)) of the same molecule?
A: 231 ng·h/mL

Q: And the AUC(0-inf) ([4]; po, 200 mg)?
A: 446 ng·h/mL

Q: And the Cmax ([4]; po, 200 mg)?
A: 220 ng/mL

Q: What about the Tmax ([4]; po, 200 mg) of the same molecule?
A: 2 h

Q: What about the Vd/F ([4]; po, 200 mg) of the same molecule?
A: 18100 L

Q: And the half-life ([4]; po, 200 mg)?
A: 29.4 h

Q: What about the AUC(0-t) ([4]; po, 200 mg, AUC0-last (zero to 24 hours postdose), 200 mg DS (Fasted)) of the same molecule?
A: 346 ng·h/mL

Q: What about the AUC(0-t) ([4]; po, 200 mg, AUC0-t (zero to the last quantifiable concentration), 200 mg DS (Fasted)) of the same molecule?
A: 381 ng·h/mL

Q: What about the AUC(0-inf) ([4]; po, 400 mg) of the same molecule?
A: 832 ng·h/mL

Q: What about the Cmax ([4]; po, 400 mg) of the same molecule?
A: 318 ng/mL

Q: What about the Tmax ([4]; po, 400 mg) of the same molecule?
A: 1.5 h

Q: And the Vd/F ([4]; po, 400 mg)?
A: 20400 L

Q: What about the half-life ([4]; po, 400 mg) of the same molecule?
A: 32.1 h

Q: And the AUC(0-t) ([4]; po, 400 mg, AUC0-last (zero to 24 hours postdose), 400 mg DS (Fasted))?
A: 698 ng·h/mL

Q: And the AUC(0-t) ([4]; po, 400 mg, AUC0-t (zero to the last quantifiable concentration), 400 mg DS (Fasted))?
A: 794 ng·h/mL

Q: And the maximum moisture uptake [5]?
A: approximately 10.5 wt %

Q: And the hygroscopicity ([5]; in words, listed as Compound I free base)?
A: hygroscopic
